Results: paper PMC12186298, “Phase 1 clinical trial of eneboparatide, a novel PTH receptor 1 agonist” (Endocrine Connections, 2025)
Peptide text beside a SMILES is read from it.

Experiments:
[1] = tested on: healthy subjects; experiment: Safety and tolerability, adverse events, Part A SAD; type: in vivo, human
Procedure: (§1) Seven sequential cohorts were included in Part A. The first cohort was single-blind and included four subjects, of which three subjects were randomized to receive 5 μg eneboparatide and one subject was randomized to receive placebo. […] Subjects in Part A were admitted to the phase 1 study centre on day 1 and received the study drug at the clinical site on day 1 as a single, subcutaneous abdominal injection in the morning. They were discharged on day 4 and were asked to return for a follow-up (FU) visit on day 5–8.

[2] = tested on: healthy subjects; experiment: Pharmacodynamics (serum calcium, phosphorus, endogenous PTH, urine), Part A SAD; type: in vivo, human
Procedure: as §1
(§2) Blood samples were taken on day 1 at pre-dose, at several time points post-dose up to day 4 and at FU (Part A), on day 1–14 (pre-dose), and day 15–17 and at FU (Part B) for the analysis of total sCa, albumin-adjusted serum calcium (ADsCa), and sPh. These parameters were also measured on day 1, 7 and 14 at several time points post-dose. Samples for serum creatinine were taken at predefined time points to allow for calculation of fractional excretion of calcium (FECa). Endogenous serum PTH(1–84) was measured on day 1 (pre-dose and 12 h post-dose), day 2–4 and at FU (Part A), on pre-dose on day 1, 7, and 14 and on day 15–17 and FU (Part B). In Part B, additional blood samples were taken on day 1, day 14 and at FU for the analysis of serum bone turnover biomarkers, including carboxy-terminal telopeptide of type I collagen (s-CTx), and procollagen type 1 amino-terminal propeptide (P1NP).
(§3) Urine collection was performed over 24 h for the analysis of calcium and creatinine on day 1–3 and at FU (Part A) and day 1, day 7, day 14 and at FU (Part B). FECa (%) was calculated by the formula: FECa = (urine calcium/serum calcium)/(urine creatinine/serum creatinine).

[3] = tested on: healthy subjects; experiment: Pharmacodynamics (serum calcium, phosphorus, endogenous PTH, urine, bone markers), Part B MAD; type: in vivo, human
Procedure: as §2, §3

[4] = tested on: patients with cHP; parameters: method as in PMID 38449442; details: 3 months; cited from earlier work
[5] = Plasma pharmacokinetics, single ascending dose (Part A); type: in vivo, human; details: for AUC(0–∞) / Cmax / Tmax: Part A SAD; for Cmax: immunoaffinity LC-MS/MS, mean ± SD
Procedure: as §1
Plasma samples were collected pre-dose and at scheduled time points up to 6 h post-dose on day 1 (Parts A and B) and day 14 (Part B). The analysis of eneboparatide in plasma samples was performed at QPS (The Netherlands) using a hybrid immunoaffinity liquid chromatography–mass spectrometry/mass spectrometry (LC-MS/MS) method, with a validated lower limit of quantification (LLOQ) of 50 pg/mL.

[6] = tested on: animal models of HP; details: cited from earlier work

CC[C@H](C)[C@H](NC(=O)[C@H](CCC(=O)O)NC(=O)[C@H](C)NC(=O)[C@@H](NC(=O)[C@H](Cc1c[nH]cn1)NC(=O)[C@@H](NC(=O)[C@H](CCC(=O)O)NC(=O)[C@H](C)NC(=O)[C@@H](NC(=O)[C@H](CC(C)C)NC(=O)[C@H](CCCCN)NC(=O)[C@H](Cc1c[nH]cn1)NC(=O)[C@H](CC(C)C)NC(=O)[C@H](Cc1ccccc1)NC(=O)[C@H](C)NC(=O)[C@H](CCCNC(=N)N)NC(=O)[C@H](CCCNC(=N)N)NC(=O)[C@H](CCCNC(=N)N)NC(=O)[C@H](C)NC(=O)[C@H](CC(=O)O)NC(=O)[C@H](CCC(N)=O)NC(=O)[C@@H](NC(=O)[C@H](Cc1c[nH]c2ccccc12)NC(=O)[C@H](CCCCN)NC(=O)[C@H](C)NC(=O)[C@H](CCCNC(=N)N)NC(=O)[C@H](CCC(N)=O)NC(=O)[C@H](Cc1c[nH]cn1)NC(=O)[C@H](CCSC)NC(=O)[C@H](CC(C)C)NC(=O)[C@H](CCC(N)=O)NC(=O)[C@@H](NC(=O)[C@H](CCC(=O)O)NC(=O)[C@H](C)NC(=O)[C@@H](NC(=O)[C@H](C)N)C(C)C)[C@@H](C)CC)[C@@H](C)CC)[C@@H](C)CC)[C@@H](C)CC)[C@@H](C)O)C(=O)O [eneboparatide] (H-AVAEIQLMHQRAKWIQDARRRAFLHKLIAEIHTAEI-OH; N-terminus and C-terminus assumed)
vomiting, subjects [1]: none | Catheter site haematoma, subjects with TEAE ([1]; single sc 5 μg, n = 3): 0 | Decreased appetite, subjects with TEAE ([1]; single sc 5 μg, n = 3): 0 | Fatigue, subjects with TEAE ([1]; single sc 5 μg, n = 3): 0 | Headache, subjects with TEAE ([1]; single sc 5 μg, n = 3): 1 | Injection site erythema, subjects with TEAE ([1]; single sc 5 μg, n = 3): 0 | Injection site pain, subjects with TEAE ([1]; single sc 5 μg, n = 3): 0 | Nausea, subjects with TEAE ([1]; single sc 5 μg, n = 3): 0 | Somnolence, subjects with TEAE ([1]; single sc 5 μg, n = 3): 0 | Catheter site haematoma, subjects with TEAE ([1]; single sc 10 μg, n = 6): 1 | Decreased appetite, subjects with TEAE ([1]; single sc 10 μg, n = 6): 0 | Fatigue, subjects with TEAE ([1]; single sc 10 μg, n = 6): 1 | Headache, subjects with TEAE ([1]; single sc 10 μg, n = 6): 1 | Injection site erythema, subjects with TEAE ([1]; single sc 10 μg, n = 6): 0 | Injection site pain, subjects with TEAE ([1]; single sc 10 μg, n = 6): 0 | Nausea, subjects with TEAE ([1]; single sc 10 μg, n = 6): 0 | Somnolence, subjects with TEAE ([1]; single sc 10 μg, n = 6): 0 | Catheter site haematoma, subjects with TEAE ([1]; single sc 20 μg, n = 6): 0 | Decreased appetite, subjects with TEAE ([1]; single sc 20 μg, n = 6): 1 | Fatigue, subjects with TEAE ([1]; single sc 20 μg, n = 6): 1 | Headache, subjects with TEAE ([1]; single sc 20 μg, n = 6): 1 | Injection site erythema, subjects with TEAE ([1]; single sc 20 μg, n = 6): 0 | Injection site pain, subjects with TEAE ([1]; single sc 20 μg, n = 6): 1 | Nausea, subjects with TEAE ([1]; single sc 20 μg, n = 6): 0 | Somnolence, subjects with TEAE ([1]; single sc 20 μg, n = 6): 0 | Catheter site haematoma, subjects with TEAE ([1]; single sc 40 μg, n = 6): 0 | Decreased appetite, subjects with TEAE ([1]; single sc 40 μg, n = 6): 0 | Fatigue, subjects with TEAE ([1]; single sc 40 μg, n = 6): 0 | Headache, subjects with TEAE ([1]; single sc 40 μg, n = 6): 0 | Injection site erythema, subjects with TEAE ([1]; single sc 40 μg, n = 6): 0 | Injection site pain, subjects with TEAE ([1]; single sc 40 μg, n = 6): 0 | Nausea, subjects with TEAE ([1]; single sc 40 μg, n = 6): 0 | Somnolence, subjects with TEAE ([1]; single sc 40 μg, n = 6): 0 | Catheter site haematoma, subjects with TEAE ([1]; single sc 60 μg, n = 6): 0 | Decreased appetite, subjects with TEAE ([1]; single sc 60 μg, n = 6): 0 | Fatigue, subjects with TEAE ([1]; single sc 60 μg, n = 6): 1 | Headache, subjects with TEAE ([1]; single sc 60 μg, n = 6): 0 | Injection site erythema, subjects with TEAE ([1]; single sc 60 μg, n = 6): 0 | Injection site pain, subjects with TEAE ([1]; single sc 60 μg, n = 6): 0 | Nausea, subjects with TEAE ([1]; single sc 60 μg, n = 6): 1 | Somnolence, subjects with TEAE ([1]; single sc 60 μg, n = 6): 0 | Catheter site haematoma, subjects with TEAE ([1]; single sc 90 μg, n = 6): 1 | Decreased appetite, subjects with TEAE ([1]; single sc 90 μg, n = 6): 2 | Fatigue, subjects with TEAE ([1]; single sc 90 μg, n = 6): 0 | Headache, subjects with TEAE ([1]; single sc 90 μg, n = 6): 2 | Injection site erythema, subjects with TEAE ([1]; single sc 90 μg, n = 6): 2 | Injection site pain, subjects with TEAE ([1]; single sc 90 μg, n = 6): 2 | Nausea, subjects with TEAE ([1]; single sc 90 μg, n = 6): 3 | Somnolence, subjects with TEAE ([1]; single sc 90 μg, n = 6): 1 | Catheter site haematoma, subjects with TEAE ([1]; single sc 120 μg, n = 6): 1 | Decreased appetite, subjects with TEAE ([1]; single sc 120 μg, n = 6): 3 | Fatigue, subjects with TEAE ([1]; single sc 120 μg, n = 6): 0 | Headache, subjects with TEAE ([1]; single sc 120 μg, n = 6): 3 | Injection site erythema, subjects with TEAE ([1]; single sc 120 μg, n = 6): 0 | Injection site pain, subjects with TEAE ([1]; single sc 120 μg, n = 6): 0 | Nausea, subjects with TEAE ([1]; single sc 120 μg, n = 6): 4 | Somnolence, subjects with TEAE ([1]; single sc 120 μg, n = 6): 4 | Catheter site haematoma, subjects with TEAE ([1]; total eneboparatide, n = 39): 3 (7.7) n (%) | Decreased appetite, subjects with TEAE ([1]; total eneboparatide, n = 39): 6 (15.4) n (%) | Fatigue, subjects with TEAE ([1]; total eneboparatide, n = 39): 3 (7.7) n (%) | Headache, subjects with TEAE ([1]; total eneboparatide, n = 39): 8 (20.5) n (%) | Injection site erythema, subjects with TEAE ([1]; total eneboparatide, n = 39): 2 (5.1) n (%) | Injection site pain, subjects with TEAE ([1]; total eneboparatide, n = 39): 3 (7.7) n (%) | Nausea, subjects with TEAE ([1]; total eneboparatide, n = 39): 8 (20.5) n (%) | Somnolence, subjects with TEAE ([1]; total eneboparatide, n = 39): 5 (12.8) n (%) | nausea, subjects ([1]; transient, at 60, 90 and 120 μg): eight | urinary excretion of calcium or phosphorus ([2]; increasing single doses): no apparent dose-related changes | duration of elevation of ADsCa post-dose vs placebo ([2]; single sc 20 μg, moderate but persistent elevation): up to 18 h | effect on physiological decline in ADsCa ([2]; single sc 5 and 10 μg): blunted this physiological decline in ADsCa during the first 6 h post-dosing | persistence of dose-dependent decrease of endogenous sPTH(1–84) ([2]; single sc 20–120 μg): 24 to 72 h | endogenous sPTH compared to placebo [3]: rapidly and dose-dependently declined | time for ADsCa to return to near baseline after cessation of treatment ([3]; 80 μg dose): ~3 days | subjects with transient hypercalcaemia in whom urinary excretion of calcium remained normal ([3]; 80 μg/d): five of the six | mean 24 h-uCa ([3]; 14 days of treatment): not associated with an increase | time mean sPh remained lower compared to placebo ([3]; after 14 days of treatment, high-dose groups (above 40 μg/day)): 12 to 20 h | FECa ([3]; all doses): below 1.5% | repeated sCa measurements throughout 24 h post-dosing ([3]; days 7 and 14, all doses): stable values with little variation | time for ADsCa to return to near baseline after cessation of treatment ([3]; doses up to 60 μg): approximately 2 days | time to stable ADsCa levels after the first administration ([3]; doses up to 60 μg): approximately 2 days | serum levels of P1NP and CTX ([3]; increasing doses for 14 consecutive days): did not alter | tolerability and independence from conventional therapy [4]: well-tolerated and allowed independence from conventional therapy | AUC(0–∞) ([5]; single sc 5 μg, n = 2, mean ± SD): 0.399 ± 0.032 ng·h/mL | Cmax ([5]; single sc 5 μg, n = 2, plasma): 6.82 ± 2.19 ng/mL | AUC(0–∞) ([5]; single sc 10 μg, n = 4, mean ± SD): 5.20 ± 3.38 ng·h/mL | Cmax ([5]; single sc 10 μg, n = 4, plasma): 11.4 ± 4.32 ng/mL | AUC(0–∞) ([5]; single sc 20 μg, n = 6, mean ± SD): 9.55 ± 4.12 ng·h/mL | Cmax ([5]; single sc 20 μg, n = 6, plasma): 24.1 ± 8.18 ng/mL | AUC(0–∞) ([5]; single sc 40 μg, n = 2, mean ± SD): 10.4 ± 13.4 (n = 2) ng·h/mL | Cmax ([5]; single sc 40 μg, n = 3, plasma): 26.3 ± 4.79 ng/mL | AUC(0–∞) ([5]; single sc 60 μg, n = 6, mean ± SD): 16.8 ± 14.7 ng·h/mL | Cmax ([5]; single sc 60 μg, n = 6, plasma): 28.5 ± 10.8 ng/mL | AUC(0–∞) ([5]; single sc 90 μg, n = 6, mean ± SD): 31.7 ± 12.5 ng·h/mL | Cmax ([5]; single sc 90 μg, n = 6, plasma): 37.5 ± 11.6 ng/mL | AUC(0–∞) ([5]; single sc 120 μg, n = 6, mean ± SD): 26.1 ± 16.4 ng·h/mL | Cmax ([5]; single sc 120 μg, n = 6, plasma): 57.4 ± 28.7 ng/mL | median time to maximum plasma concentration ([5]; Parts A and B, sc, all doses): 5 to 20 min | detectability of eneboparatide in the circulation after administration ([5]; SAD, single sc 10 to 120 μg, LLOQ 50 pg/mL): almost undetectable beyond 2 h after administration | Tmax ([5]; human, plasma, 5 ug, single sc 5 μg, n = 2, median): 15 min | Tmax ([5]; human, plasma, 10 ug, single sc 10 μg, n = 4, median): 13.2 min | Tmax ([5]; human, plasma, 20 ug, single sc 20 μg, n = 6, median): 6 min | Tmax ([5]; human, plasma, 40 ug, single sc 40 μg, n = 3, median): 4.8 min | Tmax ([5]; human, plasma, 60 ug, single sc 60 μg, n = 6, median): 10.2 min | Tmax ([5]; human, plasma, 90 ug, single sc 90 μg, n = 6, median): 19.8 min | Tmax ([5]; human, plasma, 120 ug, single sc 120 μg, n = 6, median): 19.8 min | half-life ([5]; human, plasma, normal subjects, sc, read-out: circulating half-life): < 120 min | serum calcium, urinary calcium excretion and bone resorption biomarkers [6]: robust and sustained increases in serum calcium without increasing urinary calcium excretion or bone resorption biomarkers
